In assay [1] the target is T1, protein farnesyl transferase (Bos taurus, UniProt P29702+P49355).
T1 construct: partially purified from bovine brain by ion-exchange chromatography; from tissue; host or cells: bovine brain
Briefly: Inhibition of protein farnesyl transferase (dansyl-GCVLS fluorescence). Type of assay: biochemical. The settings on record: enzyme partially purified from bovine brain; 2 μM FPP, 2 μM dansyl GCVLS, 10 minutes at 37° C.; read-out: IC50 (PFTase). The method, then:
A) Evaluation of the Inhibition of Protein Famesyl Transferase:
The famesylation of the dansylated peptide GCVLS, catalyzed with the enzyme protein famesyl transferase results in a change in the emission spectrum of the dansyl group, and especially an increase in the emission at 505 nm when the molecule is excited at 340 nm. When measured using the spectrofluorimeter, this emission is proportional to the activity of the enzyme (Pompliano et al., J. Am. Chem. Soc. 1992; 114: 7945-7946).
55 mM TRIS/HCl pH 7.5; 5.5 mM DTT; 5.5 mM MgCl2; 110 μM ZnCl2, 0.22% B-octyl-B D-glucopyrannoside.
Farnesyl pyrophosphate (FPP), (Sigma)
Dansylated peptide dansyl-GCVLS (Neosystem/Strasbourg, France)
The protein farnesyl transferase is partially purified from bovine brain by ion-exchange chromatography on Q-sepharose (Pharmacia) (Moores et al., J. Biol. Chem. 1991, 266: 14603-14610, Reiss et al., Cell 1990, 62: 81-88).
The reaction mixture containing 2 μM of FPP, 2 μM of dansyl GCVLS with or without (zero) the amount of enzyme giving an intensity of 100 on the spectrofluorimeter after incubation for 10 minutes at 37° C., is prepared on ice.
In an Eppendorf tube, 360 μL of reaction mixture are mixed with 40 μl of 10× concentrated test product or of solvent, and incubated for 10 minutes at 37° C. The reaction is quenched on ice and the fluorescence intensity is measured (excitation at 340 nm, 4 nm slit, emission at 505 nm, 10 nm slit). The tests are performed in duplicate. The results are expressed as a percentage of inhibition. Under these conditions, the derivatives of the present invention were identified as powerful inhibitors of protein farnesyl transferase (IC50<10 μM).
Adaptation of the method to a 96-well format:
The procedure is similar to that above, except that the measurements are performed in a “Black Fluorotrack 200” 96-well device (Greiner, Poitiers, France) and the readings are performed using a “Spectrametrix Gemini” 96-well fluorimeter (Molecular Devices, Sunnyvale, Calif., USA)

The target of the next assay is T2, GGPT I (Bos taurus, UniProt P29702+Q5EAD5).
T2 construct: GGPT I is partially purified from bovine brain by ion-exchange chromatography; from tissue; host or cells: bovine brain
The experiment in a line: Inhibition of geranylgeranyl transferase protein I (3H-GGPP, RhoA-GST filter assay). Particulars: enzyme partially purified from bovine brain; 0.2 μM 3H-GGPP, 1 μM RhoA-GST, 45 minutes at 37° C.; read-out: IC50 (PGGTase). Format: biochemical. The method, then:
B) Evaluation of the Inhibition of Geranyl Geraryl Transferase Protein I:
55 mM TRIS/HCl pH 7.5; 5.5 mM DTT; 5.5 mM MgCl2; 110 μM ZnCl2, 0.22% N-octyl-B D-glucopyrannoside.
^3H-geranylgeranyl pyrophosphate (GGPP), 66 μM, 15 CI/mmol, (Isotopchim) Rho-GST recombinant protein
GGPT I is partially purified from bovine brain by ion-exchange chromatography on Q-sepharose (Pharmacia); elution at 0.23 and 0.4 M NaCl, respectively.
The reaction mixture containing 0.2 μM of ^3H-GGPP, 1 μM of RhoA-GST with or without (zero) 5 μl of GGPT/test, is prepared on ice.
In an Eppendorf tube, 45 μl of reaction mixture are mixed with 5 μl of 10× concentrated test product or of solvent, and incubated for 45 minutes at 37° C. A 45 μl aliquot is placed on a phosphocellulose P81 filter (Whatman, Maidstone, UK) numbered, washed with 50% ethanol, phosphoric acid (0.5%) and counted by scintillation.
The tests are performed in duplicate. The results are expressed as a percentage of inhibition.
Adaptation of the Method to a 96-well Format: […]
The tests are performed in triplicate. The results are expressed as a percentage of inhibition.

Broadly, the IC50 is the concentration that inhibits the measured activity by half. On to `CC(C)CNC(=S)N1CCN(c2ccc(N(Cc3cnc[nH]3)S(=O)(=O)c3ccccc3)cc2)CC1` [Example 45, 4-{4-[Benzenesulfonyl-(3H-imidazol-4-ylmethyl)amino]phenyl}-1-piperazinecarbothioic acid isobutylamide], for which, in assay [1], the IC50 was determined as 6 nM.
Still for that read-out and setting: with `CCCNC(=O)N(Cc1cnc[nH]1)c1ccc(N2CCN(C(=O)c3ccc(Cl)s3)CC2)cc1` [Example 82, 1-{4-[4-(5-Chloro-2-thiophenecarbonyl)-1-piperazinyl]phenyl}-1-(3H-imidazol-4-ylmethyl)-3-propyl-urea] the figure was 7 nM; with `N#Cc1ccc(Cn2cncc2CN(C(=O)c2ccccc2)c2ccc(N3CCN(C(=O)c4ccc(Cl)s4)CC3)cc2)cc1` [Example 108, N-{4-[4-(5-Chloro-2-thiophenecarbonyl)-1-piperazinyl]phenyl}N-[3-(4-cyanobenzyl)-3H-imidazol-4-ylmethyl]benzamide], 2 nM.
`N#Cc1ccc(Cn2cncc2CN(C(=O)c2cccs2)c2ccc(N3CCN(C(=O)c4ccc(Cl)s4)CC3)cc2)cc1` [Example 109, Thiophene-2-carboxylic acid {4-[4-(5-chloro-2-thiophenecarbonyl)-1-piperazinyl]phenyl}[3-(4-cyanobenzyl)-3H-imidazol-4-ylmethyl]amide]: the IC50 in assay [1] worked out at 1 nM; on GGPT I, 700 nM.
In the case of `N#Cc1ccc(Cn2cncc2CN(C(=O)c2ccccc2Cl)c2ccc(N3CCN(C(=O)c4ccc(Cl)s4)CC3)cc2)cc1` [Example 110, 2-Chloro-N-{4-[4-(5-chloro-2-thiophenecarbonyl)-1-piperazinyl]phenylk}-N-[3-(4-cyanobenzyl)-3H-imidazol-4-ylmethyl]benzamide], in assay [1], the IC50 worked out at 2 nM.
On the same count and under the same terms, to `N#Cc1ccc(Cn2cncc2CN(C(=O)c2ccccc2F)c2ccc(N3CCN(C(=O)c4ccc(Cl)s4)CC3)cc2)cc1` [Example 113, N-{4-[4-(5-Chloro-2-thiophenecarbonyl)-1-piperazinyl]phenyl}-N-[3-(4-cyanobenzyl)-3H-imidazol-4-ylmethyl]-2-fluorobenzamide] belongs 2 nM; to `N#Cc1ccc(Cn2cncc2CN(C(=O)c2cccc(F)c2)c2ccc(N3CCN(C(=O)c4ccc(Cl)s4)CC3)cc2)cc1` [Example 114, N-{4-[4-(5-Chloro-2-thiophenecarbonyl)-1-piperazinyl]phenyl}-N-[3-(4-cyanobenzyl)-3H-imidazol-4-ylmethyl]-3-fluorobenzamide], 2 nM.
Still for that read-out and setting: to `N#Cc1ccc(Cn2cncc2CN(C(=O)c2ccc(C#N)cc2)c2ccc(N3CCN(C(=O)c4ccc(Cl)s4)CC3)cc2)cc1` [Example 123, N-{4-[4-(5-Chloro-2-thiophenecarbonyl)-1-piperazinyl]phenyl}-4-cyano-N-[3-(4-cyanobenzyl)-3H-imidazol-4-ylmethyl]-benzamide] belongs 2 nM; to `N#Cc1ccc(Cn2cncc2CN(C(=O)C2CCCCC2)c2ccc(N3CCN(C(=O)c4ccc(Cl)s4)CC3)cc2)cc1` [Example 124, Cyclohexanecarboxylic acid {4-[4-(5-chloro-2-thiophenecarbonyl)-1-piperazinyl]phenyl}-[3-(4-cyanobenzyl)-3H-imidazol-4-ylmethyl]amide], 2 nM; to `N#Cc1ccc(Cn2cncc2CN(c2ccc(N3CCN(C(=O)c4ccc(Cl)s4)CC3)cc2)S(=O)(=O)c2ccccc2C#N)cc1` [Example 126, N-{4-[4-(5-Chloro-2-thiophenecarbonyl)-1-piperazinyl]phenyl}-2-cyano-N-[3-(4-cyanobenzyl)-3H-imidazol-4-ylmethyl]benzenesulfonamide], 0.9 nM.
The same measure, in the same setting: to `CC(C)CNC(=S)N1CCC(c2ccc(N(Cc3cnc[nH]3)S(=O)(=O)c3ccccc3)cc2)CC1` [Example 141, 4-{4-[Benzenesulfonyl-(3H-imidazol-4-ylmethyl)amino]phenyl}piperidine-1-carbothioic acid isobutylamide] belongs 9 nM.
